Experimental data from PubChem BioAssay AID179 (DTP/NCI, 2004).
Active and inactive are the calls of the source.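 Rule for the calls: active = compounds giving half or more protection of infected cells from virus-caused growth loss, again on retest; inactive = the rest.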 Where a SMILES comes first, the peptide text is derived from it. The star is where a group is joined. Cbz = O=C(OCc1ccccc1)*

Test system: CEM cells HIV-1 protection, formazan growth assay
Assay: NCI AIDS Antiviral Assay
Settings: for IC50: measured here: growth of uninfected CEM cells
Procedure, shortened: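 Screen of anti-HIV-1 activity in human CEM cells using a formazan-based growth measurement at five drug concentrations. Hits with 50% or greater protection were repeated, and confirmation required reproducible complete protection.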

CCOC(=O)c1ccc(-n2[nH]nc(C(N)=O)c2=O)cc1
EC50: > 200 µM | IC50: > 200 µM

COc1cc(C(=O)C2CC3(CCC2(O)c2cc(OC)c(OC)c(OC)c2)CC(=O)Nc2ccccc2C3=O)cc(OC)c1OC (stereo unspecified)
EC50: > 200 µM | IC50: > 200 µM

CCOP(=O)(Nc1cccc(Cl)c1)OCC
EC50: > 955 µM

O=C1CCCCCCCCCCC(=O)C2CCOCCOCCOCCC1Cc1cccc(n1)C2
EC50: > 138 µM | IC50: > 138 µM

CC(C)(C)N=C1C(=O)C2(C)CCC1C2(C)C (stereo unspecified)
EC50: > 20 µM | IC50: > 20 µM

CCOC(=O)Nc1nc2cc(C(=O)OC)n(C)c2s1
EC50: > 200 µM | IC50: > 200 µM

O=C1C(=Cc2cccc(O)c2)N=C(c2ccccc2)N1n1c(-c2ccccc2)nc2ccccc2c1=O
EC50: > 200 µM | IC50: 8.51 µM

O=C1C(=C2C(=O)c3ccccc3[N+]2=O)N([O-])c2ccccc21
outcome: inactive

CCCCCCCCOP(=O)(/C=C/c1ccccc1)OCCCCCCCC
EC50: > 6.61 µM | IC50: > 6.61 µM

CCN(CC)C(=O)N1CN(c2ccccc2)C2(CCN(CCCSc3ccc(F)cc3)CC2)C1=O
EC50: > 200 µM | IC50: 9.77 µM

CCOC(=O)[C@H]1CSC[C@@H](C(=O)OC)N1
EC50: > 562 µM | IC50: > 562 µM

CCN(CC)CCNC(=O)c1nn(-c2ccc(C)cc2)c2c1N(C)S(=O)(=O)c1ccccc1-2
EC50: > 77.6 µM | IC50: 56.2 µM

CCOP(=O)(OCC)C1CCCOC1=O (stereo unspecified)
outcome: inactive

O=C(O)CCC(NC(=O)OCc1ccccc1)C(=O)NC(Cc1cnc[nH]1)C(=O)O (stereo not drawn) (Cbz-Glu-His-OH; configuration not given here)
EC50: > 200 µM | IC50: > 200 µM

O=C(C(Cl)=C(N1CCOCC1)N1CCOCC1)C(Cl)Cl
EC50: > 200 µM | IC50: 112 µM

Cn1cc(NC(=O)c2cc(NC(=O)CCCCCCCCCCC(=O)Nc3cc(C(=O)Nc4cc(C(=O)NCCC(=N)N)n(C)c4)n(C)c3)cn2C)cc1C(=O)NCCC(=N)N
EC50: 4.07 µM | IC50: 7.76 µM

N#Cc1c(N2CCOCC2)[nH]c(=O)n(-c2ccccc2)c1=S
EC50: > 200 µM | IC50: > 200 µM

CC(O)(CCCCCl)c1nc2ccccc2s1 (stereo unspecified)
EC50: > 200 µM | IC50: 60.3 µM

Cc1c(OCc2cccc3ccccc23)ccc2c(=O)cc(S)oc12
EC50: > 200 µM | IC50: 93.3 µM

C/C(Cl)=N\OC(=O)Nc1ccc(C)cc1
EC50: > 200 µM | IC50: 18.6 µM

COC(=O)/C(C#N)=C1\NC(=O)CC(c2ccccc2)C1C#N (stereo unspecified)
EC50: > 200 µM | IC50: 57.5 µM

Cc1[nH]c(=O)n2c(C)nnc2c1C(=O)Nc1cc(Cl)cc(Cl)c1
outcome: inactive

O=C(Nc1ccc(Cl)cc1)Nc1cccc2nsnc12
EC50: > 32.4 µM | IC50: 20.4 µM

Oc1ccccc1/C=N/N1C(=S)N(C23CC4CC(CC(C4)C2)C3)C(=Nc2ccccc2)C1=Nc1ccccc1
EC50: > 200 µM | IC50: 85.1 µM

N#Cc1nn(C(N)=O)c(N)c1C#N
EC50: > 200 µM | IC50: > 200 µM

C[N+](C)(CCCCCC[N+](C)(C)CC(=O)O)CC(=O)O
EC50: > 550 µM | IC50: > 550 µM

CCOC(=O)C1CC=CC(NC(=O)OC(C)(C)C)C1(c1ccccc1)[N+](=O)[O-] (stereo unspecified)
outcome: inactive

CC(C)OP(=O)(CCC(=O)C1(O)CCC2C3CCC4=CC(=O)CCC4(C)C3CCC21C)OC(C)C (stereo unspecified)
EC50: > 200 µM | IC50: 32.4 µM

CC1=CC(=O)C(C(O)(C(F)(F)F)C(F)(F)F)C(C)(C)C1 (stereo unspecified)
EC50: > 200 µM | IC50: > 200 µM

O=c1nc2[nH]c3c4cccc5cccc(c3nc2c(=O)[nH]1)c54
EC50: > 200 µM | IC50: 0.603 µM

CNC(=O)OCc1nc(SC)n(C)c1COC(=O)NC
EC50: > 708 µM | IC50: 309 µM

COc1cc(OC)c(OC)cc1/C=C/c1cc[n+](C)c2ccccc12
EC50: > 200 µM | IC50: 7.59 µM

O=C1c2ccccc2-c2nc3ncccc3cc21
EC50: > 200 µM | IC50: 33.9 µM

Clc1ccc(C(SCc2ccccc2)SCc2ccccc2)cc1
EC50: > 200 µM | IC50: > 200 µM

CCN(C(=O)N[C@H](C(=O)N[C@@H](C)C(=O)OC)C(C)C)c1ccccc1
EC50: > 200 µM | IC50: 35.5 µM

CCSc1nnc(Sc2c3ccccc3nc3ccccc23)s1
EC50: > 200 µM | IC50: 2.82 µM

CC(c1cccc2ccccc12)/[N+]([O-])=C/c1ccccc1 (stereo unspecified)
EC50: > 182 µM | IC50: 162 µM

CCOC1CN=C(Nc2cccc3ccccc23)S1 (stereo unspecified)
EC50: > 200 µM | IC50: 162 µM

O=[N+]([O-])C1C2C=CC(C2)[C@H]1c1ccc(Cl)cc1Cl (stereo partly specified)
outcome: inactive

COc1ccc(NC(=O)CSc2nnc(-c3ccc(NC(C)=O)cc3)o2)cc1
EC50: > 33.9 µM | IC50: 19.1 µM

Cc1ncc([N+](=O)[O-])n1CCNC(=O)CCCCCn1ccnc1[N+](=O)[O-]
outcome: inactive

COC(=O)c1c2oc3c(C(=O)OC)cccc3nc-2cc(N)c1=O
outcome: inactive

COC1/C=C/OC2(C)Oc3c(C)c(O)c4c(O)c(c(/C=N/OCCN5CCCCC5)c(O)c4c3C2=O)NC(=O)C(C)=C/C=C/C(C)C(O)C(C)C(O)C(C)C(OC(C)=O)C1C (stereo unspecified)
EC50: > 100 µM | IC50: 28.2 µM

COC(=O)c1cc(C(=O)c2cc(C)c(OC)c(C(=O)OC)c2)cc(C)c1OC
EC50: > 200 µM | IC50: 66.1 µM

CCOc1ccc(NC(=O)C(=O)CC(=O)c2c(C)n([O-])c3ccccc3[n+]2=O)cc1
EC50: > 6.61 µM | IC50: > 6.61 µM

CCOc1ccccc1NC(=O)C(=O)C1C(=O)Nc2ccccc2S1=O (stereo unspecified)
outcome: inactive

O=C(NN(C(=O)c1ccc([N+](=O)[O-])cc1)c1ccccc1)c1ccc([N+](=O)[O-])cc1
EC50: > 200 µM | IC50: 36.3 µM

O=C1C=CC2(C=C1)CCC(=O)O2
EC50: 2.95 µM | IC50: 158 µM

COC(=O)C1=C(C(=O)OC)N2c3ccccc3-n3c(-c4ccccc4)cc(OC)c3C2(C)C(C(=O)OC)=C1C(=O)OC (stereo unspecified)
EC50: > 53.7 µM | IC50: > 53.7 µM

S=C1N(c2ccc(Br)cc2)C2=Nc3ccccc3SC(=C2N=Nc2ccc(Br)cc2)N1c1ccc(Cl)cc1
EC50: > 32.4 µM | IC50: 6.17 µM

c1ccc(SSc2ccccc2)cc1
EC50: > 200 µM | IC50: 5.62 µM

CN(CC(O)C(O)C(O)C(O)CO)CN1C(=O)C(=O)c2ccccc21 (stereo unspecified)
EC50: > 200 µM | IC50: 34.7 µM

Clc1ccc(-c2nnc(C34CC5CC(CC(C5)C3)C4)o2)cc1
EC50: > 200 µM | IC50: > 200 µM

O=C1NC(N/N=C\c2ccccc2)=N/C1=C/c1ccccc1
EC50: > 200 µM | IC50: 35.5 µM

CCOc1nc(-c2ccccc2)cc(-c2ccc(N3CCOCC3)cc2)c1C#N
EC50: > 200 µM | IC50: 112 µM

CNc1nc2n(CCO)c(-c3ccccc3)c(-c3ccccc3)nc-2c(=O)n1
EC50: > 50.1 µM | IC50: 26.3 µM

Cc1ccc(Nc2sc(C)cc2C#N)c([N+](=O)[O-])c1
EC50: > 200 µM | IC50: 178 µM

Cn1c2c(c3cc(Cl)cc(Cl)c31)-c1ncncc1CC2
EC50: > 61.7 µM | IC50: > 61.7 µM

[O-][n+]1nc2ccccc2c2ccccc21
EC50: > 347 µM | IC50: 141 µM

COc1cccc2c1C(=O)c1c(O)c3c(c(O)c1C2=O)C[C@@](O)(C(=O)CO)C[C@@H]3OC1CC(N)C(OC)C(C)O1 (stereo partly specified)
EC50: > 0.2 µM | IC50: 0.0195 µM

[O-][N+]1=C(c2ccccc2)COc2ccccc21
EC50: > 115 µM | IC50: > 115 µM

COc1nc(N=P(c2ccccc2)(c2ccccc2)c2ccccc2)cc(=O)n1C
outcome: inactive

C/C=C(/CCCCCOCOCCOC)[Si](C)(C)C
EC50: > 324 µM | IC50: > 324 µM

CC(C)=CCN1Cc2cccc([N+](=O)[O-])c2NC[C@@H]1C
EC50: > 85.1 µM | IC50: > 85.1 µM

O=c1c2ccccc2c(=O)c2c1c1c(=O)c3ccccc3c(=O)c1c1c(=O)c3ccccc3c(=O)c21
EC50: > 200 µM | IC50: > 200 µM

CCOC(=O)c1c(C)nc2c(c1-c1cn(-c3ccccc3)nc1-c1ccccc1)C(=O)c1ccccc1-2
outcome: inactive

CC1(C)NC(=O)N(C(C)(C)C(=O)O)C1=O
EC50: > 200 µM | IC50: > 200 µM

Cc1cc(N(CCC#N)CCC#N)ccc1N=Nc1cc(Cl)ccc1Cl
EC50: > 3.72 µM | IC50: 2 µM

C1COC2SC3=C(SC(=C4SC5=C(SCCS5)S4)S3)SC2O1 (stereo unspecified)
EC50: > 100 µM | IC50: > 100 µM

Cc1ccc2c(c1)CN(C(=O)CCC(=O)OCc1ccccc1)c1ccc(C)cc1CN2C(=O)CCC(=O)OCc1ccccc1
outcome: inactive

NCCCCC(NC(=O)C(CO)NC(=O)C(N)Cc1cnc[nH]1)C(=O)NC(Cc1ccccc1)C(=O)NC(Cc1c[nH]c2ccccc12)C(=O)NC(Cc1c[nH]c2ccccc12)C(N)=O (stereo unspecified) (H-HSKFWW-NH2; configuration not given here)
EC50: > 50.1 µM | IC50: > 50.1 µM

CCC/C(Cl)=N\OC(=O)Nc1ccc(Br)cc1
outcome: inactive

COc1c(C(=O)/C(=N/Nc2ccc(C(=O)O)cc2)C(C)=O)c(O)cc2occc12
EC50: > 200 µM | IC50: 110 µM

O=C(/C=C/c1cccs1)c1ccc(Cl)cc1
outcome: inactive

COC(=O)[C@H]1COC(=S)N1C(=O)[C@@H](C)[C@H](O)C(C)C
EC50: > 631 µM | IC50: > 631 µM

CCCCCC(/C=N/N)C(O)(C(F)(F)F)C(F)(F)F (stereo unspecified)
EC50: > 200 µM | IC50: 1.48 µM

Nc1cc(Cl)cc2cc(Cl)cnc12
EC50: > 200 µM | IC50: 117 µM

O=S(=O)(NCCSSCCNS(=O)(=O)c1cccc2cccnc12)c1cccc2cccnc12
EC50: > 200 µM | IC50: 10.7 µM

O=C1CC(c2c[nH]c3ccccc23)C(=O)N1 (stereo unspecified)
outcome: inactive

CN(C)N(CCO)CCO
EC50: > 200 µM | IC50: > 200 µM

N#COc1ccc(Oc2ccccc2)cc1
EC50: > 24.5 µM | IC50: > 24.5 µM

CC(=O)C1=C(O)CC2CC3c4[nH]c5ccccc5c4CCN3CC2C1 (stereo unspecified)
EC50: > 204 µM | IC50: 102 µM

C#CCCCCCCCCC/C=C1\C[C@H](O)COC1=O
EC50: > 245 µM | IC50: 46.8 µM

O=CN1CCN(C=S)CC1
EC50: > 1580 µM | IC50: > 1580 µM

CN1C(=O)c2ccccc2N=CN1C(=O)Nc1ccccc1
EC50: > 123 µM | IC50: > 123 µM

COC(=O)C1CCC(=O)C(Sc2ccccc2)C1 (stereo unspecified)
EC50: > 97.7 µM | IC50: 43.7 µM

N#CC(NNC(=O)c1ccccc1O)c1c(O)ccc2ccccc12 (stereo unspecified)
EC50: > 40.7 µM | IC50: 3.8 µM

COc1ccc(C2CC(=O)c3c(cc(OC)c(O)c3OC)O2)cc1 (stereo unspecified)
EC50: > 200 µM | IC50: 32.4 µM
